Species: Rattus norvegicus
Experiment: Open TG-GATES - Regimen: Single
Assay type: toxicity, organism-based, Sprague-Dawley
Design: regimen Single, gender Male, age 6 weeks
Conditions: in vivo, po, route gavage; for Bas / Eos / Fbg / Hb / Lym / MCH / MCHC / MCV / Mono / Neu / RBC / Ret / WBC / APTT: tissue Blood; for KIDNEY_L / KIDNEY_R / KIDNEY_TOTAL: tissue Kidney; for LIVER: tissue Liver; for ALP / ALT / AST / CRE / Ca / Cl / DBIL / GLC / IP / K / LDH / Na / PL / RALB / TBIL / TC / TG / TP / gamma-GTP: tissue Plasma
[1] = 75 mg/kg, 3 h, dose level Middle
[2] = 75 mg/kg, 6 h, dose level Middle
[3] = 75 mg/kg, 9 h, dose level Middle
[4] = 75 mg/kg, 24 h, dose level Middle
[5] = 250 mg/kg, 3 h, dose level High
[6] = 250 mg/kg, 6 h, dose level High
[7] = 250 mg/kg, 9 h, dose level High
[8] = 250 mg/kg, 24 h, dose level High

## O=C1CN(/N=C/c2ccc(-c3ccc([N+](=O)[O-])cc3)o2)C(O)=N1 [DANTROLENE]
[1]
  Bas: 0%
  Eos: 1%
  Fbg: 217.6 mg/dL
  Hb: 14.2 g/dL
  Lym: 70.4%
  MCH: 22.7 pg
  MCHC: 34.1%
  MCV: 66.7 fL
  Mono: 8%
  Neu: 20.6%
  RBC: 623.6 x10_4/ul
  Ret: 10.8%
  WBC: 82.6 x10_2/uL
  KIDNEY_L: 0.9 g
  KIDNEY_R: 1 g
  KIDNEY_TOTAL: 1.9 g
  LIVER: 9.5 g
  ALP: 747.2 IU/L
  ALT: 32.4 IU/L
  AST: 60.2 IU/L
  CRE: 0.5 mg/dL
  Ca: 10.3 mg/dL
  Cl: 101.4 meq/L
  DBIL: 0.06 mg/dL
  GLC: 213.4 mg/dL
  IP: 11.1 mg/dL
  K: 4.7 meq/L
  LDH: 105.8 IU/L
  Na: 138 meq/L
  PL: 148.2 mg/dL
  RALB: 3.9 g/dL
  TBIL: 0.3 mg/dL
  TC: 85.4 mg/dL
  TG: 41.4 mg/dL
  TP: 5.7 g/dL
  gamma-GTP: 1.8 IU/L
[2]
  TERMINAL_BW: 191.2 g
  APTT: 17 s
  Bas: 0%
  Eos: 1%
  Fbg: 220.6 mg/dL
  Hb: 14.6 g/dL
  Lym: 73.2%
  MCH: 22.4 pg
  MCHC: 34.3%
  MCV: 65.2 fL
  Mono: 8.6%
  Neu: 17.2%
  RBC: 650.4 x10_4/ul
  Ret: 12.7%
  WBC: 82.9 x10_2/uL
  KIDNEY_L: 0.9 g
  KIDNEY_R: 0.9 g
  KIDNEY_TOTAL: 1.9 g
  LIVER: 9 g
  ALP: 749.6 IU/L
  ALT: 34 IU/L
  AST: 64.2 IU/L
  CRE: 0.5 mg/dL
  Ca: 10.3 mg/dL
  Cl: 102.8 meq/L
  DBIL: 0.06 mg/dL
  GLC: 211.4 mg/dL
  IP: 9.6 mg/dL
  K: 4.6 meq/L
  LDH: 102 IU/L
  Na: 138.8 meq/L
  PL: 141.8 mg/dL
  RALB: 3.8 g/dL
  TBIL: 0.3 mg/dL
  TC: 80.4 mg/dL
  TG: 30.4 mg/dL
  TP: 5.6 g/dL
  gamma-GTP: 1.6 IU/L
[3]
  TERMINAL_BW: 191.7 g
  APTT: 16.9 s
  Bas: 0%
  Eos: 1%
  Fbg: 217.8 mg/dL
  Hb: 14.3 g/dL
  Lym: 78.2%
  MCH: 21.6 pg
  MCHC: 32.9%
  MCV: 65.6 fL
  Mono: 7.4%
  RBC: 663.8 x10_4/ul
  Ret: 9.8%
  WBC: 74.6 x10_2/uL
  KIDNEY_L: 0.9 g
  KIDNEY_R: 0.9 g
  KIDNEY_TOTAL: 1.8 g
  LIVER: 8.2 g
  ALP: 710.6 IU/L
  ALT: 23.2 IU/L
  AST: 53 IU/L
  CRE: 0.5 mg/dL
  Ca: 10.4 mg/dL
  Cl: 105.2 meq/L
  DBIL: 0.054 mg/dL
  GLC: 205.8 mg/dL
  IP: 9.5 mg/dL
  K: 5.2 meq/L
  LDH: 103.2 IU/L
  Na: 138.2 meq/L
  PL: 148 mg/dL
  RALB: 3.8 g/dL
  TBIL: 0.4 mg/dL
  TC: 87.4 mg/dL
  TG: 26.4 mg/dL
  TP: 5.5 g/dL
  gamma-GTP: 1.6 IU/L
[4]
  TERMINAL_BW: 190.1 g
  APTT: 16.9 s
  Bas: 0%
  Eos: 0.8%
  Fbg: 202.2 mg/dL
  Hb: 13.8 g/dL
  Lym: 86.2%
  MCH: 21.9 pg
  MCHC: 33.6%
  MCV: 65.3 fL
  Mono: 7.2%
  Neu: 6.2%
  RBC: 631 x10_4/ul
  Ret: 11.5%
  WBC: 86.1 x10_2/uL
  KIDNEY_L: 0.9 g
  KIDNEY_R: 0.9 g
  KIDNEY_TOTAL: 1.9 g
  LIVER: 9 g
  ALP: 1061.6 IU/L
  ALT: 32.8 IU/L
  AST: 56.2 IU/L
  CRE: 0.5 mg/dL
  Ca: 10.9 mg/dL
  Cl: 105 meq/L
  DBIL: 0.018 mg/dL
  GLC: 189 mg/dL
  IP: 7.7 mg/dL
  K: 4.3 meq/L
  LDH: 104.6 IU/L
  Na: 141.4 meq/L
  PL: 147.8 mg/dL
  RALB: 3.9 g/dL
  TBIL: 0.4 mg/dL
  TC: 83.6 mg/dL
  TG: 73.2 mg/dL
  TP: 5.7 g/dL
  gamma-GTP: 1 IU/L
[5]
  TERMINAL_BW: 193.5 g
  APTT: 16.6 s
  Bas: 0%
  Eos: 1.4%
  Fbg: 218.2 mg/dL
  Hb: 14.5 g/dL
  Lym: 76.6%
  MCH: 22 pg
  MCHC: 34.2%
  MCV: 64.3 fL
  Mono: 6.8%
  Neu: 15%
  RBC: 658 x10_4/ul
  Ret: 11.7%
  WBC: 67.2 x10_2/uL
  KIDNEY_L: 0.9 g
  KIDNEY_R: 0.9 g
  KIDNEY_TOTAL: 1.9 g
  LIVER: 9.3 g
  ALP: 867.8 IU/L
  ALT: 35.6 IU/L
  AST: 68.8 IU/L
  CRE: 0.5 mg/dL
  Ca: 10.4 mg/dL
  Cl: 100.6 meq/L
  DBIL: 0.056 mg/dL
  GLC: 223.4 mg/dL
  IP: 10.3 mg/dL
  K: 4.5 meq/L
  LDH: 100.4 IU/L
  Na: 138.4 meq/L
  PL: 142 mg/dL
  RALB: 3.9 g/dL
  TBIL: 0.3 mg/dL
  TC: 81 mg/dL
  TG: 41.8 mg/dL
  TP: 5.7 g/dL
  gamma-GTP: 2.2 IU/L
[6]
  TERMINAL_BW: 189.5 g
  APTT: 17.8 s
  Bas: 0%
  Eos: 0.8%
  Fbg: 212.2 mg/dL
  Hb: 14.7 g/dL
  Lym: 68.4%
  MCH: 22.4 pg
  MCHC: 34.4%
  MCV: 65.2 fL
  Mono: 6.2%
  Neu: 24.6%
  RBC: 656.8 x10_4/ul
  Ret: 12.9%
  WBC: 66.9 x10_2/uL
  KIDNEY_L: 0.9 g
  KIDNEY_R: 0.9 g
  KIDNEY_TOTAL: 1.8 g
  LIVER: 8.3 g
  ALP: 725.6 IU/L
  ALT: 29.6 IU/L
  AST: 58.6 IU/L
  CRE: 0.5 mg/dL
  Ca: 10.3 mg/dL
  Cl: 102.4 meq/L
  DBIL: 0.086 mg/dL
  GLC: 219.6 mg/dL
  IP: 9 mg/dL
  K: 4.4 meq/L
  LDH: 110.6 IU/L
  Na: 137.6 meq/L
  PL: 133.4 mg/dL
  RALB: 3.9 g/dL
  TBIL: 0.3 mg/dL
  TC: 79.2 mg/dL
  TG: 19.2 mg/dL
  TP: 5.6 g/dL
  gamma-GTP: 1.2 IU/L
[7]
  TERMINAL_BW: 185.8 g
  APTT: 19.1 s
  Bas: 0%
  Eos: 0.2%
  Fbg: 216.8 mg/dL
  Hb: 14.5 g/dL
  Lym: 77.8%
  MCH: 21.6 pg
  MCHC: 32.9%
  MCV: 65.6 fL
  Mono: 5.8%
  Neu: 15.8%
  RBC: 669.4 x10_4/ul
  Ret: 12.3%
  WBC: 55.5 x10_2/uL
  KIDNEY_L: 0.9 g
  KIDNEY_R: 0.9 g
  KIDNEY_TOTAL: 1.8 g
  LIVER: 8 g
  ALP: 664.6 IU/L
  ALT: 21.4 IU/L
  AST: 50.4 IU/L
  CRE: 0.6 mg/dL
  Ca: 10.5 mg/dL
  Cl: 103.6 meq/L
  DBIL: 0.064 mg/dL
  GLC: 212.2 mg/dL
  IP: 8.9 mg/dL
  K: 4.9 meq/L
  LDH: 89.8 IU/L
  Na: 136.8 meq/L
  PL: 144.2 mg/dL
  RALB: 3.8 g/dL
  TBIL: 0.4 mg/dL
  TC: 90.2 mg/dL
  TG: 17.2 mg/dL
  TP: 5.7 g/dL
  gamma-GTP: 1.4 IU/L
[8]
  TERMINAL_BW: 185 g
  APTT: 17.5 s
  Bas: 0%
  Eos: 0.8%
  Fbg: 207 mg/dL
  Hb: 14.7 g/dL
  Lym: 87.6%
  MCH: 21.8 pg
  MCHC: 33.4%
  MCV: 65.3 fL
  Mono: 5.8%
  Neu: 5.8%
  RBC: 675 x10_4/ul
  Ret: 13%
  WBC: 72.5 x10_2/uL
  KIDNEY_L: 0.9 g
  KIDNEY_R: 0.9 g
  KIDNEY_TOTAL: 1.9 g
  LIVER: 8.6 g
  ALP: 722.6 IU/L
  ALT: 24.6 IU/L
  AST: 46.2 IU/L
  CRE: 0.5 mg/dL
  Ca: 11.1 mg/dL
  Cl: 103.4 meq/L
  DBIL: 0.022 mg/dL
  GLC: 191.2 mg/dL
  IP: 9.1 mg/dL
  K: 4.8 meq/L
  LDH: 102.8 IU/L
  Na: 140.6 meq/L
  PL: 136 mg/dL
  RALB: 4 g/dL
  TBIL: 0.3 mg/dL
  TC: 79.6 mg/dL
  TG: 21.8 mg/dL
  TP: 5.7 g/dL
  gamma-GTP: 1.6 IU/L
